Drawing on the supplement of paper PMC12463676, “Small-molecule dissolution of stress granules by redox modulation benefits ALS models” (Nature Chemical Biology, 2025), this text covers thermal stability z-score for 42 targets.

Compound in test [1]: NC(=O)CCCCC1CCSS1 [lipoamide]
As to the kind of experiment: thermal stability z-score vs DMSO; higher = more thermally stabilized by treatment. Conditions: HeLa, lipoamide concentration 100 µM. As for the experimental part:
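Cellular thermal proteome profiling in HeLa cells. Cells were treated with 100 µM lipoamide for 1 h, with or without 1 mM arsenate for a further 1 h, then heated to ten temperatures (37-66.3 °C), and soluble protein was quantified by TMT mass spectrometry relative to 0.1% DMSO controls. The thermal stability score (sum of log2 fold changes minus the abundance score) was transformed to a z-score; mean of n = 3 experiments.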

Compound in test [2]: O=[As]([O-])(O)O.[K+] [potassium arsenate]
The description is as above. To be noted: HeLa; arsenate concentration 1 mM. On the procedure: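 Cellular thermal proteome profiling in HeLa cells treated with 1 mM arsenate for 1 h (DMSO pretreatment), heated to ten temperatures (37-66.3 °C). Soluble protein was quantified by TMT mass spectrometry relative to DMSO controls; the thermal stability score was transformed to a z-score; mean of n = 3 experiments.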

The mark [3] stands for this setting: arsenate co-treatment: 1 mM arsenate 1 h.
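Also: each temperature applied for 3 min, abundance score taken as mean log2 fold change at the two lowest temperatures, z-score obtained by mean subtraction and division by SD.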

UniProt Q96HP4, sequence (Q96HP4 whole entry): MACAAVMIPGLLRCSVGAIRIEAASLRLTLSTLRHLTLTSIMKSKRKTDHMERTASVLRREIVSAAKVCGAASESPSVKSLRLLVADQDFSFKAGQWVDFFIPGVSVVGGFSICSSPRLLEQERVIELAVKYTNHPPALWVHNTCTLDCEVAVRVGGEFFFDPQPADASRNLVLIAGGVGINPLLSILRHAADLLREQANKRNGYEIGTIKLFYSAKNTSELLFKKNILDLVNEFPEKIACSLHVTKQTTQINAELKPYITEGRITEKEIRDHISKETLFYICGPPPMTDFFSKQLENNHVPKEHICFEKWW
UniProt P50454, sequence (P50454 whole entry): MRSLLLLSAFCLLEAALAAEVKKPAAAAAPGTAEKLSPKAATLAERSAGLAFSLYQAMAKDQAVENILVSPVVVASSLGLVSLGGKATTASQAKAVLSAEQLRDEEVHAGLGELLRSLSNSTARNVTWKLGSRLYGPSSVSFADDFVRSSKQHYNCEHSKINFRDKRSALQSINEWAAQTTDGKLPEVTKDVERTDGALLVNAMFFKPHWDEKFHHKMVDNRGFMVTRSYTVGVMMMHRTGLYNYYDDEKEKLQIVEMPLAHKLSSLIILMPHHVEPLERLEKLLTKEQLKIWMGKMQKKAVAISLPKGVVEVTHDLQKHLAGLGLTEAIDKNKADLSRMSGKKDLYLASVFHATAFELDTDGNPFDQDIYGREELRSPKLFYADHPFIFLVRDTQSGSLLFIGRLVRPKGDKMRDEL
UniProt O00217, sequence (O00217 whole entry): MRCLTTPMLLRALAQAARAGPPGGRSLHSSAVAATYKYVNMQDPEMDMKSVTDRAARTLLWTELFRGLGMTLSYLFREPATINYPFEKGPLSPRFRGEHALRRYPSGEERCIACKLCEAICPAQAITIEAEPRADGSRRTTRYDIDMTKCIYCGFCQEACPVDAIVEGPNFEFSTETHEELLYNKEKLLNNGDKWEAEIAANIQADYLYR
UniProt Q9BWT6, sequence (Q9BWT6 whole entry): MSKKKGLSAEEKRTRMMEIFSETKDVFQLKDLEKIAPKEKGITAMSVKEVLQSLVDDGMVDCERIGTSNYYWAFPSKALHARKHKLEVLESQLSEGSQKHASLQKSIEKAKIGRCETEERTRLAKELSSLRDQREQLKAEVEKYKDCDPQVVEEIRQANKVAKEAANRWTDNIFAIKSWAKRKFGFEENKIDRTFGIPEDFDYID
UniProt Q9UNY4, sequence (Q9UNY4 whole entry): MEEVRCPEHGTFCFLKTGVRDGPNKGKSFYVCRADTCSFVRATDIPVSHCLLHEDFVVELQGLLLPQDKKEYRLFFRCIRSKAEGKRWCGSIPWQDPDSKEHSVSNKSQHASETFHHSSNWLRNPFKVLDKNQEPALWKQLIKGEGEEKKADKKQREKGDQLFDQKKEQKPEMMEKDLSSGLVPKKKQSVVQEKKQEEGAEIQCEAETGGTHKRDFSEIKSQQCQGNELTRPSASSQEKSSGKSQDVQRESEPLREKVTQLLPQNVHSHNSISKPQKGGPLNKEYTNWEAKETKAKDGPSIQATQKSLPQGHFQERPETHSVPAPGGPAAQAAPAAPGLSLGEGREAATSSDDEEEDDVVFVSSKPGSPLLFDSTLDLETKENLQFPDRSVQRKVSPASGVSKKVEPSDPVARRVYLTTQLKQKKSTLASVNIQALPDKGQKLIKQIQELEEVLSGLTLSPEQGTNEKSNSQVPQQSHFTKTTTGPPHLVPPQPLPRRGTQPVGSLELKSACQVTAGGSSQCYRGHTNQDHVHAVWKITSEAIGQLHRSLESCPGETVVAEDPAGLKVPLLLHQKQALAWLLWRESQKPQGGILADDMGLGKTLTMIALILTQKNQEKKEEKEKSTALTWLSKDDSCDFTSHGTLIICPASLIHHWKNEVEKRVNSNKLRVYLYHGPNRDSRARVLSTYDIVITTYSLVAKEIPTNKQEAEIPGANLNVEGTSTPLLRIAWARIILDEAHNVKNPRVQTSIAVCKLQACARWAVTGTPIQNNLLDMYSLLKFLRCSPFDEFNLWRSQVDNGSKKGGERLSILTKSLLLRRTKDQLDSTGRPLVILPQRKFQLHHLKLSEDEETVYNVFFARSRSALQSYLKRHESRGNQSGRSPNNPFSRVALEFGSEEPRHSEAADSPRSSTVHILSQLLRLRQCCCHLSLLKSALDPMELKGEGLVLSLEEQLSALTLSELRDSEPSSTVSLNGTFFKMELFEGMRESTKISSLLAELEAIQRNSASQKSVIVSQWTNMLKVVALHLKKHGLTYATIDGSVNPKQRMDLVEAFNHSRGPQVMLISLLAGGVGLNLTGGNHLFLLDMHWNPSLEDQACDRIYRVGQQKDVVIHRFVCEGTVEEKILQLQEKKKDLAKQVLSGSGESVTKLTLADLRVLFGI
UniProt P31949, sequence (P31949 whole entry): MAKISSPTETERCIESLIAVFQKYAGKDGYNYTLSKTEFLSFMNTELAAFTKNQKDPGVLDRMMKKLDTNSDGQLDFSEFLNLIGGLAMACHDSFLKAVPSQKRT
UniProt Q13228, sequence (Q13228 whole entry): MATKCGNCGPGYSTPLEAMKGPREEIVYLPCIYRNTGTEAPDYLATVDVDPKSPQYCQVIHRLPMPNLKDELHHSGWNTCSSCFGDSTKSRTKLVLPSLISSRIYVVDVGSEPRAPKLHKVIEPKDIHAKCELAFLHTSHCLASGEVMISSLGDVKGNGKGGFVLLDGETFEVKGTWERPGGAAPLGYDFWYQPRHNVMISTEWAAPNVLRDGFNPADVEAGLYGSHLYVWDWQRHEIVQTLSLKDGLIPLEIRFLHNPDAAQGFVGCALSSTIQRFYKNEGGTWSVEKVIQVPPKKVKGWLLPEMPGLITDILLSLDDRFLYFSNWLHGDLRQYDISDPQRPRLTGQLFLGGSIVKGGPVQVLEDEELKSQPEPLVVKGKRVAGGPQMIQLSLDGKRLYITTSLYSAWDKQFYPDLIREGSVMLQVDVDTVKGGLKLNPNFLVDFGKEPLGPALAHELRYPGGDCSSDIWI
UniProt Q16719, sequence (Q16719 whole entry): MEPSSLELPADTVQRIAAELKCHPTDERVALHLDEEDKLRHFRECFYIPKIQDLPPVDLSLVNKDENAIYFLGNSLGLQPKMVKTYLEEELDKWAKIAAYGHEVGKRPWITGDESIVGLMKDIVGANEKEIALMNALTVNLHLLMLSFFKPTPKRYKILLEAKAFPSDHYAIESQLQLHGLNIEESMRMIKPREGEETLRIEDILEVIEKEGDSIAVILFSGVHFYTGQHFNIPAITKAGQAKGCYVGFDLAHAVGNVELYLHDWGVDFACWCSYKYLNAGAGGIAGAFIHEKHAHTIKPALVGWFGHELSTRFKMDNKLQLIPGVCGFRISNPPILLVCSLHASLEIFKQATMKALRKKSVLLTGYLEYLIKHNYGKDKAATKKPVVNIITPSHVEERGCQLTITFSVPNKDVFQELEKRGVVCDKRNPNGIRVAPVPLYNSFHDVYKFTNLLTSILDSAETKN
UniProt P98179, sequence (P98179 whole entry): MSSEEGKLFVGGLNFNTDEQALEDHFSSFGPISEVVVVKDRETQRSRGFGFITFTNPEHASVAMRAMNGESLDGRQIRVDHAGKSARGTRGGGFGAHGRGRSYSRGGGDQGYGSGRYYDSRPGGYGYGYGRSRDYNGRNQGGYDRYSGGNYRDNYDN
UniProt Q9BYB4, sequence (Q9BYB4 whole entry): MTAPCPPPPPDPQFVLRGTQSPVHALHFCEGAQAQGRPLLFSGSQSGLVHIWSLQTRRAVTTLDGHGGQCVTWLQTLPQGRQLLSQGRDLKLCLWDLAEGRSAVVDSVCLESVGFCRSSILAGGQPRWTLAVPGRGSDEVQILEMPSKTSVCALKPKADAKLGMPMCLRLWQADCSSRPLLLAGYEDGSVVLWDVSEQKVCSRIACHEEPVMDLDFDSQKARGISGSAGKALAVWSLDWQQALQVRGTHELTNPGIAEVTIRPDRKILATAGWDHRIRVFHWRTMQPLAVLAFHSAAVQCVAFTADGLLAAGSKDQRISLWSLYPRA
UniProt Q9H5Q4, sequence (Q9H5Q4 whole entry): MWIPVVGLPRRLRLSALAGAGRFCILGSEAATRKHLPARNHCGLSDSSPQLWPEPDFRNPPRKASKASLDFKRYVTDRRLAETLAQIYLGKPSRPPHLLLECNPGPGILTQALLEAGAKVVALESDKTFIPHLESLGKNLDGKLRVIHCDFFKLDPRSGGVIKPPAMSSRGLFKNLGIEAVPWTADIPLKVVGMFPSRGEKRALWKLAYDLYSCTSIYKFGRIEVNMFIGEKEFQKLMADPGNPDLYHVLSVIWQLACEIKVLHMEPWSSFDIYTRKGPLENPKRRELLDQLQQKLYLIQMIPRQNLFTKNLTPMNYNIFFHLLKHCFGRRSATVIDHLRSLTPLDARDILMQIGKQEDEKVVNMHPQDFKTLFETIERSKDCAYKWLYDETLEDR
UniProt P46734, sequence (P46734 whole entry): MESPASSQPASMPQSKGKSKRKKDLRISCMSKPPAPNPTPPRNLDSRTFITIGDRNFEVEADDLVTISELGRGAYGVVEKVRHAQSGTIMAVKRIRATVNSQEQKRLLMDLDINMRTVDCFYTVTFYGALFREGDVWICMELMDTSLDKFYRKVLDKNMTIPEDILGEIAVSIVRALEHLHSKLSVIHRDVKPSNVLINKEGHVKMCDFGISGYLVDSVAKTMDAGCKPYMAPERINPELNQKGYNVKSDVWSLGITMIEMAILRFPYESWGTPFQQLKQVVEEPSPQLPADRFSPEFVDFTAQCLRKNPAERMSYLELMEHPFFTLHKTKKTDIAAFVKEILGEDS
UniProt Q8N8R3, sequence (Q8N8R3 whole entry): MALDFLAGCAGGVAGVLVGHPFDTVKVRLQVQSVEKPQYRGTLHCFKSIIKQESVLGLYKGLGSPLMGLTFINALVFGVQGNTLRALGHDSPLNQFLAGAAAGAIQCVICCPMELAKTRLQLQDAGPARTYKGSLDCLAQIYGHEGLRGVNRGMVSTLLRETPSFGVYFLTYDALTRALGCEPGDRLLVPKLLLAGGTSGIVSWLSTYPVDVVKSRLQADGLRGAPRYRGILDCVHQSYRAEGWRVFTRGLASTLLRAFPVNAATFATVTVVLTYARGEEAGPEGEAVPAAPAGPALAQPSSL

On to SLC30A9 (UniProt Q6PML9), for which the thermal stability z-score in test [1] (setting [3]) is 1.14; in test [1] (arsenate co-treatment: none), 1.13; in test [2], 1.17.
Taken in the same sequence, the figures for NHS (UniProt Q6T4R5) were -0.604, 0.0609 and -0.851.
In the same order, the values of SELENBP1 (UniProt Q13228) are 0.567, 0.164 and 0.784.
Take CHD1L (UniProt Q86WJ1): the thermal stability z-score in test [1] (setting [3]) is -0.114; in test [1] (arsenate co-treatment: none) it was -0.0149; in test [2] it was -0.109.
Taken in the same sequence, the figures for CELSR2 (UniProt Q9HCU4) were -1.53, -2.3 and -0.894.
As for SERPINH1 (UniProt P50454), the thermal stability z-score was -3.31 in test [1] (setting [3]), -2.2 in test [1] (arsenate co-treatment: none) and 0.567 in test [2].
Taken in the same sequence, the figures for SMYD4 (UniProt Q8IYR2) were -0.0691, -0.00905 and -0.0713.
Consider SLC25A29 (UniProt Q8N8R3), for which the thermal stability z-score in test [1] (setting [3]) was 0.136; in test [1] (arsenate co-treatment: none) it was -0.0401; in test [2] it was -0.111.
Regarding REEP6 (UniProt Q96HR9), the values for the thermal stability z-score in test [1] (setting [3]), in test [1] (arsenate co-treatment: none) and in test [2] were 0.703, 0.825 and 0.0059, respectively.
Regarding DPP7 (UniProt Q9UHL4), the thermal stability z-score in test [1] (setting [3]) was 0.246; in test [1] (arsenate co-treatment: none) it was 0.304; in test [2], -0.0217.
Consider TFB2M (UniProt Q9H5Q4), for which the thermal stability z-score in test [1] (setting [3]) is -0.3; in test [1] (arsenate co-treatment: none), -0.261; in test [2] it was 0.215.
Taken in the same sequence, the figures for RPN2 (UniProt P04844) were -2.41, -1.79 and 0.141.
In the same order, the values of ATRX (UniProt P46100) are -0.0326, 0.195 and -0.0925.
Turning to GOLGA7 (UniProt Q7Z5G4), the thermal stability z-score was -1.29 in test [1] (setting [3]), -0.742 in test [1] (arsenate co-treatment: none) and -1.71 in test [2].
Taken in the same sequence, the figures for SLC37A4 (UniProt O43826) were 1.26, -0.205 and -0.212.
As for CISD1 (UniProt Q9NZ45), the thermal stability z-score is 0.257 in test [1] (setting [3]), 0.707 in test [1] (arsenate co-treatment: none) and -0.578 in test [2].
Turning to S100A11 (UniProt P31949), the thermal stability z-score turned out to be 1.19 in test [1] (setting [3]), 1.12 in test [1] (arsenate co-treatment: none) and 0.639 in test [2].
Taken in the same sequence, the figures for PPIH (UniProt O43447) were 0.218, -0.34 and -0.183.
With TBL1X (UniProt O60907), the thermal stability z-score in test [1] (setting [3]) is 0.835; in test [1] (arsenate co-treatment: none), -0.0254; in test [2], 0.341.
For the target BLOC1S5 (UniProt Q8TDH9), the thermal stability z-score in test [1] (setting [3]) amounted to 0.19; in test [1] (arsenate co-treatment: none), 0.0962; in test [2] it was 0.446.
In the same order, the values of SLC1A5 (UniProt Q15758) are 0.752, 0.31 and 0.00339.
In the same order, the values of GLOD4 (UniProt Q9HC38) are 2.19, 2.33 and 0.311.
Regarding MAP2K3 (UniProt P46734), the thermal stability z-score in test [1] (setting [3]) is -0.4; in test [1] (arsenate co-treatment: none) it was -0.138; in test [2], 0.235.
As to STIP1 (UniProt P31948), the thermal stability z-score in test [1] (setting [3]) is 0.275; in test [1] (arsenate co-treatment: none) it was 0.371; in test [2], -0.157.
Consider KIFC3 (UniProt Q9BVG8), for which the thermal stability z-score in test [1] (setting [3]) is -0.119; in test [1] (arsenate co-treatment: none), -0.358; in test [2], -0.23.
On to ZFAND5 (UniProt O76080), for which the thermal stability z-score in test [1] (setting [3]) was determined as 1.13; in test [1] (arsenate co-treatment: none) it was 0.84; in test [2] it was 0.118.
As for UBXN6 (UniProt Q9BZV1), the thermal stability z-score in test [1] (setting [3]) was -0.186; in test [1] (arsenate co-treatment: none) it was -0.134; in test [2], -0.12.
In the same order, the values of TTF2 (UniProt Q9UNY4) are -1.12, 0.461 and -0.0154.
For the target TBL1XR1 (UniProt Q9BZK7), the thermal stability z-score in test [1] (setting [3]) was 1.11; in test [1] (arsenate co-treatment: none) it was 0.307; in test [2] it was -0.746.
Taken in the same sequence, the figures for TCAF1 (UniProt Q9Y4C2) were 0.246, 0.355 and 0.396.
In the same order, the values of COQ3 (UniProt Q9NZJ6) are 0.083, 0.759 and 1.9.
In the same order, the values of GNB1L (UniProt Q9BYB4) are 0.757, -0.25 and -0.589.
For the target OXNAD1 (UniProt Q96HP4), the figures for the thermal stability z-score in test [1] (setting [3]), in test [1] (arsenate co-treatment: none) and in test [2] were 0.221, 0.451 and -0.691, respectively.
TBC1D2B (UniProt Q9UPU7): the values for the thermal stability z-score in test [1] (setting [3]), in test [1] (arsenate co-treatment: none) and in test [2] were -0.169, -0.202 and -0.23, respectively.
In the same order, the values of RPS6KB2 (UniProt Q9UBS0) are 0.0955, 0.0989 and -0.0668.
In the same order, the values of KYNU (UniProt Q16719) are 0.77, 0.403 and 0.0266.
Take FBXW11 (UniProt Q9UKB1): the thermal stability z-score was 0.162 in test [1] (setting [3]), -0.0669 in test [1] (arsenate co-treatment: none) and 0.814 in test [2].
Taken in the same sequence, the figures for C15ORF38|ARPIN were -0.167, 0.382 and 0.206.
In the same order, the values of FAM3A (UniProt P98173) are 0.0593, -0.109 and 0.363.
In the same order, the values of RBM3 (UniProt P98179) are 0.0805, -0.138 and 0.167.
On to MND1 (UniProt Q9BWT6), for which the figures for the thermal stability z-score in test [1] (setting [3]), in test [1] (arsenate co-treatment: none) and in test [2] were -0.235, -0.0119 and 0.296, respectively.
Taken in the same sequence, the figures for NDUFS8 (UniProt O00217) were -0.474, -0.512 and -0.279.
